One block for each compound: values may come before it.
Key:
[1] = system: C6 glioma; test: Cellular uptake of radiotracer in tumor cells; type: cell-based
Experimental: The time point of addition of radio tracer was staggered such that every group could be harvested concurrently. At various times of 0.25, 0.5, 1.5, 3 and 5 h, the collection of the medium was progressing. During harvesting, the radioactive medium was collected from each of the wells, followed by rinsing with PBS […] twice. The medium and rinses (1.5 mL) were combined for counting; the counts were treated as extracellular radioactivity. Subsequently, the cells were lysed with 0.25% trypsin-EDTA ([…]) and the wells were rinsed with PBS twice. Both cells and rinses (1.5 mL) were combined for counting; the counts were treated as intracellular radioactivity. Radioactivity was measured using a scintillation gamma counter (Packard 5000, Packard Instrument Co. laboratory) and decay was corrected. Samples were performed triplicated at each time point for all uptake studies.
The uptake ratio was calculated according to the following expression:
Uptake ratio(%)=Countintracellular=Countextracellular+Countintracellular)×100%

[2] = molecular target: T1, GST-α (Homo sapiens, UniProt P08263); test: Radioligand enzymatic binding assay (gel filtration HPLC); details: GSTA1-1
T1 construct: purchased Pro SpecTany Techno Gene Ltd ENZ-469
T1 sequence (P08263 1-222): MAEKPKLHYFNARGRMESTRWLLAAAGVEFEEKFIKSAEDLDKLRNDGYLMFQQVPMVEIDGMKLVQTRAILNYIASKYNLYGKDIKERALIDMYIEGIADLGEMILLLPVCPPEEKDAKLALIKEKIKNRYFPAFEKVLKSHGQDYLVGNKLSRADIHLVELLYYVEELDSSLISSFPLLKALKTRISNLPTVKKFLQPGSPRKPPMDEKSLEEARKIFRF
Experimental: (§1) The flow rate was 1 mL/min.
(§2) L-PGDS catalyzes the […] of prostaglandin H2 (PGH2), a metabolite (also known as a prostanoid) derived from arachidonic acid (AA) through oxidation and reduction via the catalysis of COX enzymes. For comparison, mPGES-1, the counterpart of L-PGDS that catalyzes the formation of PGE2 from COX-derived PGH2, was also used in this study. […] Thus, GST-P1 and GST-A1-1 enzymes were only used as negative controls.

[3] = molecular target: T2, m-PGES (Homo sapiens, UniProt O14684); test: as above; details: mPGES-1
T2 construct: purchased Cayman Chemical Inc
T2 sequence (O14684 1-152): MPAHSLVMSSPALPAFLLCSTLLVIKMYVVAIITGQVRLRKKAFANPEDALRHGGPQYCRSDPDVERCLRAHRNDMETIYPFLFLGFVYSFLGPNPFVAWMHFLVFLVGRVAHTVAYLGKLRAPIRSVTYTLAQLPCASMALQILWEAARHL
Experimental: as §1, §2

[4] = molecular target: GST-π (Homo sapiens, UniProt P09211); test: as above; details: GSTP1
Experimental: as §1, §2

[5] = system: C6 glioma brain tumor; test: PET imaging of C6-glioma rat brain tumor; type: in vivo; details: tail vein injection, three cross sections
Experimental: All studies involving animals were conducted in compliance with federal and institutional guidelines. Two weeks before imaging, healthy male SD rats were stereotactically inoculated in the right hemisphere with 1.0×10^5 C6 glioma cells (American Type Tissue Collection).
After C6 glioma cells were injected into the striatum of the SD rats, the animals were placed on heating pad until they have entirely recovered. When the xenografted tumor size has grown to a size of 1-2 mm in diameter, the animals were transferred to the animal facility under control by the research staff every morning. […] Prior to imaging, all rats were affixed with venous and arterial catheters. The in vivo xenograft C6 glioma was imaged 2 weeks after transplantation procedure, until the volume of the tumor reached 3 mm-5 mm in diameter, well-demarcated from normal brain tissue. Regular oral feeding was proceeded after the animals were recovered from anesthesia.
PET scanning experiments were performed within 72 hours of MRI experiment that used to confirm a successful inoculation of tumors by administering [^18F] FBuEA-GS3 via tail vein injection. Both machines of microPET and nanoPET/CT were employed.
Data were collected in list-mode format for 120 minutes. For reconstruction, the dynamic PET acquisition was divided into six 20-min frames over the scanning duration. […]

[6] = Ex vivo analysis of biodistribution; type: in vivo; details: rat
Source text: The specimens included 1) organ tissues such as brain, liver, spleen, heart, kidney, lung, colon, small bowel, stomach, testes, skull, and muscle, and 2) body fluids such as blood and urine. These specimens were submitted for counting the radioactivity using a solid scintillation gamma counter (Packard 5000, Packard Instrument Co. laboratory). The counting value of each specimen was further divided by the sample weight to give the final expression as percentage of injection dose per sample weight (% ID/g).

[7] = molecular target: T3, L-PGDS (Homo sapiens, UniProt P41222); test: Competitive inhibition of the production of PGD2 from PGH2 catalysed by L-PGDS (Cayman kit, EIA readout); type: biochemical; details: 200 μM of each test compound; duplicate; read-out: inhibition of the formation of PGD2 from PGH2
T3 construct: purchased Cayman 10006595
T3 sequence (P41222 23-190): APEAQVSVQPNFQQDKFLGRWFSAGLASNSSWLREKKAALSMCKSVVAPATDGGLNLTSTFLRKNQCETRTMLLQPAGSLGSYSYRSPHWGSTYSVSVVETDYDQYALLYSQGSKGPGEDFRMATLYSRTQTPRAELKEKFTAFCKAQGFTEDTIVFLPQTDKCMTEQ

Compound: C=C(CC)C(=O)c1ccc(OCC(=O)NCCCC[18F])c(Cl)c1Cl [[^18F]FbuEA 2, fluorine-18-labeled fluorobutyl ethacrynic amide]
uptake in tumor cells versus normal cells (in words) ([1]; tumor cells compared to normal cell): lower uptake in tumor cells compared to normal cell

binding affinity (in words) [2]: weak binding affinities
binding affinity (in words) [3]: did not show any binding affinity
binding affinity (in words) [4]: weak binding affinities
radioactivity in the brain ([6]; brain, 1.0-1.5 mCi injected): 0.05 % ID/g
distribution of radioactivity (in words) ([6]; fourteen tissue samples): mainly localized in the excretory system
Compound: CCC(CSC[C@@H](NC(=O)CC[C@@H](N)C(=O)O)C(=O)NCC(=O)O)C(=O)c1ccc(OCC(=O)NCCCC[18F])c(Cl)c1Cl (stereo partly drawn) [[^18F]FBuEA-GS 3, glutathione conjugate of fluorine-18-labeled fluorobutyl ethacrynic amide]
time to reach steady state of accumulation ([1]; cellular uptake): approximately 15 min
PET imaging of brain tumor (in words) [5]: clear hot spot coinciding to the tumor region detected by MRI imaging

Compound: O=c1ccn([C@@H]2O[C@H](CO)[C@@H](O)[C@H]2O)c(=O)[nH]1 [uridine]
inhibition at 200 µM [7]: 5.6 ± 14.3%

Source: patent US20160228584A1, “18F -GLUTATHIONE CONJUGATE AS A PET TRACER FOR IMAGING TUMORS OR NEUROLOGICAL DISORDERS THAT OVEREXPRESS L-PGDS ENZYME” (National Tsing Hua University, priority 2015, published 2016)
